According to article PMC12040169 (PLOS Biology, 2025):

Assay: in vitro
Settings: human, hela cells, % viability

Going from `O=C(NCCC(=O)N1CCCCC1)c1cccc(OCc2cscn2)c1` [CBK306384] to `CC(=O)Nc1cccc(C(=O)OCC(=O)N2CCC(C)CC2)c1` [CBK305905], the viability at 28.5 h, 10 µM falls from 98.5% to 98.3%.

Going from `CSc1nc(NC(=O)C2CCCO2)cc(N2CCNCC2)n1` (centres unmarked) [CBK026740T] to `O=C(Nc1ccc2nonc2c1)N1CCOCC1` [CBK057530], the viability at 28.5 h, 10 µM rises from 90.5% to 90.8%.

First: COc1ccc(CN2C(=O)CC3(C2=O)C(=O)N(C)c2ccccc23)cc1OC (centres unmarked) [CBK075450]
Second: COc1ccc(C(=O)N2CCC3(CCCN(CCCn4c(=O)[nH]c5ccccc54)C3)C2)cc1OC (centres unmarked) [CBK132856]
The viability at 28.5 h, 10 µM of the first is lower: 91.8% for the first, 93.1% for the second.

Going from `CN(C)C1=NC(N(C)C)=NP(N(C)C)(N(C)C)=N1` [CBK261057] to `Cc1ccc(C2C(C(=O)c3sc(-c4ccccc4)nc3C)=C(O)C(=O)N2CCN(C)C)o1` (centres unmarked) [CBK234004], the viability at 28.5 h, 10 µM rises from 91.8% to 107%.

Going from `Cc1ccc2nc(-c3ccccc3)c(C)c(C(=O)O)c2c1` [CBK270268] to `COc1ccccc1-c1nnc(SC)n1-c1ccc(C)cc1` [CBK076670], the viability at 28.5 h, 10 µM rises from 87.6% to 93.2%.

First: O=C(Cn1cccc(C(=O)Nc2cc(F)ccc2N2CCCC2)c1=O)NC1CCCCC1 [CBK286008]
Second: O=C(Nc1ncccc1O)c1cnc2c(cnn2C2CCCC2)c1 [CBK305246]
The viability at 28.5 h, 10 µM of the first is lower: 88.9% for the first, 99.9% for the second.

Compared with `C(=C\c1ccccc1)/CSc1nnc(-c2cnccn2)n1Cc1ccco1` [CBK267587], `COC(=O)CCn1c(-c2ccccn2)cc2cccnc21` [CBK282634] is lower in viability at 28.5 h, 10 µM: 119% for the first, 89.8% for the second.

Compared with `COc1ccc(CN(CCN2CCOCC2)C(=O)Nc2cccnc2)cc1OC` [CBK159379], `COc1ccc(C(CNC(=O)Cn2c(-c3cccc(C)c3)n[nH]c2=S)N2CCOCC2)cc1OC` (centres unmarked) [CBK297900] is lower in viability at 28.5 h, 10 µM: 93.2% for the first, 88.2% for the second.

Going from `COc1ccc(-c2cnc3[nH]c(=O)n(CCCN4CCOCC4)c3n2)c(OC)c1OC` [CBK064249] to `COc1cc(C(=O)N2CCC3(CCN(C(=O)Cc4c[nH]c5ccccc45)C3)C2)cc(OC)c1OC` (centres unmarked) [CBK131448], the viability at 28.5 h, 10 µM falls from 109% to 86.7%.

Going from `O=C(Cn1ccc(=O)[nH]c1=O)NCc1cccnc1OCC(F)(F)F` [CBK304565] to `CS(=O)(=O)N(CC(=O)Nc1ccc(C(F)(F)F)cc1)Cc1ccc(Cl)cc1` [CBK268915], the viability at 28.5 h, 10 µM rises from 90.5% to 99.7%.

First: CC(NC(=O)CCN1CCN(C)CC1)c1cc2cc(Cl)ccc2o1 (centres unmarked) [CBK281601]
Second: CC(Oc1ccc(Cl)cc1Cl)C(=O)Nc1ccc2oc(-c3ccncc3)nc2c1 (centres unmarked) [CBK266768]
The viability at 28.5 h, 10 µM of the first is lower: 102% for the first, 109% for the second.

Going from `O=C1c2ccc(S(=O)(=O)c3ccc4c(c3)C(=O)N(c3nccs3)C4=O)cc2C(=O)N1c1nccs1` [CBK261335] to `CCc1ccc2oc(-c3ccc(NC(=O)COc4ccc(Cl)cc4Cl)cc3O)nc2c1` [CBK263424], the viability at 28.5 h, 10 µM falls from 105% to 104%.

First: CCCN1CCC(NC(=O)c2cccc(S(N)(=O)=O)c2)CC1 [CBK305956]
Second: CN(C)S(=O)(=O)N(CC(=O)N1CCN(Cc2ccccc2)CC1)c1ccccc1 [CBK268423]
The viability at 28.5 h, 10 µM of the first is lower: 90.6% for the first, 112% for the second.

Compared with `CC(CC(=O)O)CC(=O)N1CCN(c2ccccn2)CC1` (centres unmarked) [CBK286839], `CC(=O)N1CCC[C@H]2NC(=O)CNC(=O)C3(C/C=C/C[C@H]21)CCN(C(=O)c1ccon1)CC3` [CBK292057] is higher in viability at 28.5 h, 10 µM: 107% for the first, 109% for the second.

First: CC(C)CC(NC(=O)c1ccccc1)C(=O)OCC(=O)Nc1nc2ccccc2s1 (centres unmarked) [CBK085134]
Second: CCCCCn1c(=O)c(Cc2ccccc2)c(O)c2ccccc21 [CBK291233]
The viability at 28.5 h, 10 µM of the first is lower: 92.5% for the first, 93.2% for the second.

Going from `Nc1nnc(SCC(=O)Nc2ccc3c(c2)OCCO3)s1` [CBK266331] to `COc1ccc(NC(=O)/C(=C\c2ccc3c(c2)OCO3)NC(=O)c2ccco2)cc1` [CBK263607], the viability at 28.5 h, 10 µM falls from 95.6% to 86.3%.

Compared with `CCOc1ccc(C(C)(N)C(=O)O)cc1` (centres unmarked) [CBK261362], `Cc1noc(C)c1NC(=O)c1ccc2nccnc2c1` [CBK200221] is lower in viability at 28.5 h, 10 µM: 121% for the first, 84.1% for the second.

Going from `Cc1nn(-c2ccccc2)c(CN2C(=O)NC3(CCCC3)C2=O)c1C#N` [CBK305572] to `Cc1cc(C)n2nc(C(=O)N3CCCC34CC=CC4)cc2n1` [CBK282815], the viability at 28.5 h, 10 µM rises from 81.4% to 88.7%.

First: COc1nc(N)nc2c1ncn2C1OC(CO)C(O)C1O (centres unmarked) [CBK201271]
Second: O=C(c1coc(COc2cccc(F)c2)n1)N1CC(n2cccn2)C1 [CBK306842]
The viability at 28.5 h, 10 µM of the first is higher: 91.6% for the first, 77.2% for the second.

Compared with `CC1(C)COC(=O)N1C1CCN(C(=O)c2ccno2)CC1` [CBK044383], `COc1ccc([C@@]23CC[C@@H](NC(=O)Nc4c(F)cc(F)cc4Cl)C[C@@H]2N(C)CC3)cc1OC` [CBK073740T] is higher in viability at 28.5 h, 10 µM: 95.7% for the first, 112% for the second.

Compared with `O=C(OCCC1SC(NC2CC3C=CC2C3)=NC1=O)c1cc(C(F)(F)F)ccc1C(F)(F)F` (centres unmarked) [CBK200058T], `CN(C(=O)[C@H]1CCCC[C@H]1C(=O)O)C1CCS(=O)(=O)C1` (some centres unmarked) [CBK286782] is higher in viability at 28.5 h, 10 µM: 88.1% for the first, 106% for the second.

`O=C(O)C(=C/C=C/Br)C(=O)O` [CBK260906] showed a viability at 28.5 h, 10 µM of 92.6%.

Same assay, conditions: human, hela cells, % viability, bulk resorufin, single well

Work on `O=C(NCCCn1ccnc1)c1cc([N+](=O)[O-])cc([N+](=O)[O-])c1` [CBK261773] yielded a viability at 28.5 h, 10 µM of 87.5%.
